The numbers were not newly measured in patent US20060018842A1, “Composition and method for delivery of phytochemicals” (priority 2004, published 2006), which cites them from elsewhere.

Entries after “also recorded” stand apart in the source; their conditions may differ.

One data set deals with microorganisms named in the source.
Settings: not given
On to `COc1cc(CNC(=O)CCCC/C=C/C(C)C)ccc1O` [Capesicin], for which the Activity result is recorded as “Bacteria”.

Still in this data set, the particulars now being: organisms against which activity was observed; General = general antimicrobial.
As to `O=C(O)c1ccc(O)cc1O` [β-Resorcyclic acid], the Activity entry is “Bacteria and viruses”.
Turning to Pebatin, the Activity result was “Bacteria”.
Turning to `CC1(C)C=Cc2c(cc3occ(-c4ccc(O)cc4)c(=O)c3c2O)O1` [Alpinumisoflavone], the Activity result is reported as “Schiatosome”.
`COc1ccc2cc3[n+](cc2c1OC)CCc1cc2c(cc1-3)OCO2` [Berberine]: the Activity entry is “Plasmodium; also recorded: Trypansomea, general; also recorded: Bacteria, protozoa; also recorded: Bacteria, Giardia duodenals,; also recorded: trypanosomes; also recorded: Platmodia”.
For `CC(C)=CCc1cc(O)c(O)c(CC=C(C)C)c1[C@H]1Oc2c(CC=C(C)C)c(O)cc(O)c2C(=O)[C@@H]1O` [Petalostemumol], the Activity result is “Bacteria, fungi”.
For `COc1cc(CCN)cc(OC)c1OC` [Mascaline], the Activity result is given as “General”.
For `O=C(O)c1cc(O)c(O)c(O)c1` [Gallic acid], the Activity entry is given as “S. aureus”.
On to `C=CCSSC=CC[S+]([O-])CC=C` (mixture of isomers) [ajoene], for which the Activity entry is recorded as “General”.
For the molecule Catechin, the Activity entry is reported as “General; also recorded: Shigella; also recorded: Vibrio; also recorded: S. mutans; also recorded: Viruses”.
Take `CC(C)=CCC1=C(O)C(C(=O)CC(C)C)=C(O)C(CC=C(C)C)(CC=C(C)C)C1=O` [Lupulone]: the Activity result is on record as “General”.
As to `COC(=O)[C@H]1[C@H]2C[C@@H]3c4[nH]c5cc(OC)ccc5c4CCN3C[C@H]2C[C@@H](OC(=O)c2cc(OC)c(OC)c(OC)c2)[C@@H]1OC` [Roserpine, reference compound], the Activity entry was “General”.
Consider `O=C(/C=C/C=C/c1ccc2c(c1)OCO2)N1CCCCC1` [Piperdine], for which the Activity entry is “Fungi, Lactobacillus,; also recorded: Micrococcus, E. coli; also recorded: E. facecalis”.
Regarding `COc1cc2c(c(OC)c1OC)-c1ccc(OC)c(=O)cc1[C@@H](NC(C)=O)CC2` [Colchicines, reference compound], the Activity result is given as “General”.
Consider `C=C1C(=O)[C@]23C[C@H]1C[C@@H](O)[C@H]2[C@@]1(CCCC(C)(C)[C@H]1C=O)COC3=O` [Trichorabdal A], for which the Activity result is listed as “Helicobacter pylori”.
With Helanine, the Activity entry is “General”.
For the molecule `CC1=C(CO)C(=O)O[C@@H]([C@@H](C)[C@H]2CC[C@H]3[C@@H]4C[C@H]5O[C@]56[C@@H](O)C=CC(=O)[C@]6(C)[C@H]4CC[C@]23C)C1` [Withafarin A], the Activity result is on record as “Bacteria, fungi”.
As for `COc1ccc2c(c1OC)C(=O)O[C@@H]2[C@H]1c2cc3c(cc2CCN1C)OCO3` [hydrastine], the Activity entry is “Bacteria, Giardia duodenals,; also recorded: trypanosomes; also recorded: Platmodia”.
Turning to `C=CCc1ccc(O)c(OC)c1` [Eugonol], the Activity entry was “General”.
Turning to `Cc1ccc(C(C)C)cc1O` [Carvacrol], the Activity entry is given as “General”.
Turning to `O=C1C=C(O)C(=O)c2ccccc21` [Lawsone], the Activity result is on record as “M. tuberculosis”.
For `C/C(=C\CC[C@H](C)[C@@H]1CC[C@]2(C)C3=CC[C@H]4C(C)(C)C(=O)CC[C@]4(C)[C@H]3CC[C@@]12C)C(=O)O` [Terebinthone], the Activity result was “General”.
Take Anthemic acid: the Activity entry was “M. tuberculosis, S. typhi-; also recorded: murium, S. aureus,; also recorded: holminths”.
As to `C=CCS[S+]([O-])CC=C` (stereo not drawn) [Allicin], the Activity result is reported as “Bacteria, Candida; also recorded: General”.
With `CC1CCC(C(C)C)C(O)C1` (stereo not drawn) [Menthol, reference compound], the Activity result was “General”.
Turning to Hexemal, the Activity result was “General”.
As for `O=C(CO)[C@@H](O)[C@H](O)[C@H](O)CO` [Fructose], the Activity entry is “E. coli; also recorded: Bacteria”.
In the case of `O=C(CCc1ccc(O)cc1)c1c(O)cc(O)cc1O` [Phloretin], the Activity entry was “General”.
As to `C=C[C@H]1CN2CC[C@H]1C[C@H]2[C@H](O)c1ccnc2ccc(OC)cc12` [Quiniae, reference compound], the Activity result is listed as “Plasmodium spp”.
Consider `CC(C)=CCc1cc([C@@H]2CC(=O)c3ccc(O)c(CC=C(C)C)c3O2)ccc1O` [Glabrol], for which the Activity result is recorded as “S. aureus, M. tuberculosis”.
Turning to `C=C1C=CC(=O)O1` [Protoanemonia], the Activity entry is “General”.
On to `CC(Cc1ccc(O)c(O)c1)C(C)Cc1ccc(O)c(O)c1` (stereo not drawn) [Nordihydrogual-aretic acid], for which the Activity result is “Skin bacteria”.
With Caffaio acids, the Activity result is reported as “Viruses, holminths”.
Regarding Asiatocoside, the Activity result is recorded as “M. leprae”.

The test system of the next data set is breast cancer cell line MCF7.
Settings: not given
With `CC(C)=CCC/C(C)=C/C=C/C(C)=C/C=C/C(C)=C/C=C/C=C(C)/C=C/C=C(C)/C=C/C=C(\C)CCC=C(C)C` [lycopene], the IGF-1 stimulated proliferation result is “blocked IGF-1 stimulated proliferation”.

A further data set has as its system oral carcinoma cell line (KB). Particulars: features of caspase-3-mediated apoptosis.
With `CCCCCCCC(=O)CCc1ccc(O)c(OC)c1` [[6]-paradol], the Cytotoxicity entry was “dose-dependent cytotoxicity”.

Still in this data set, the particulars now being: incubated for 48 h.
In the case of `CCCCCCCC(=O)CCc1ccc(O)c(OC)c1` [[6]-paradol], the “Viable KB cells, % of untreated control” value is “less than 50%”.

The next data set has as its system oral cancer cell line KB-1. Particulars: key protein for gap junction formation.
For `CC(C)=CCC/C(C)=C/C=C/C(C)=C/C=C/C(C)=C/C=C/C=C(C)/C=C/C=C(C)/C=C/C=C(\C)CCC=C(C)C` [lycopene], the “Induction of connexin 43” value is “specifically induced”.

The data set is the same for the next values; noted with them: physiological lycopene concentrations.
As to `CC(C)=CCC/C(C)=C/C=C/C(C)=C/C=C/C(C)=C/C=C/C=C(C)/C=C/C=C(C)/C=C/C=C(\C)CCC=C(C)C` [lycopene], the “KB-1 cells, % of control cell numbers” value is listed as “approximately 10%”.

For a further data set, the system named is normal human epidermal keratinocytes.
Settings: not given
Consider epigallocatechin-3-gallate [EGCG], for which the Survival entry is reported as “survive”.

A further data set concerns oral squamous cell carcinoma (OSCC) cells. To be noted: oral tumor cells.
`COc1ccc2c3c1O[C@H]1C(=O)C=C[C@H]4[C@@H](C2)N(C)CC[C@]314` [codeinone]: the Selectivity of cytotoxicity entry is reported as “selectively higher in oral tumor cells”.

The same data set, now with this note: targets the mitochondria.
As to `COc1ccc2c3c1O[C@H]1C(=O)C=C[C@H]4[C@@H](C2)N(C)CC[C@]314` [codeinone], the Apoptosis entry was “caspase-3-dependent apoptosis”.

Another data set has as its system transformed cells. Particulars: by activating apoptosis.
For epigallocatechin-3-gallate [EGCG], the Growth inhibition entry is given as “induce growth inhibition”.

For another data set, the system named is normal cell.
Settings: not given
On to epigallocatechin-3-gallate [EGCG], for which the Normal cell growth result is “not affected”.

The test system of the next data set is human breast cancer xenografts. To be noted: mice.
As for `COc1cc(/C=C/C(=O)CC(=O)/C=C/c2ccc(O)c(OC)c2)ccc1O` [curcumin], the “Growth and metastasis of xenografts” value was “reduce the growth and metastasis”.

The test system of another data set is oral cancer.
Settings: not given
Take `O=C(/C=C/c1ccc(O)c(O)c1)O[C@@H]1C[C@](O)(C(=O)O)C[C@@H](O)[C@H]1O` [CGA, chlorogenic acid]: the Apoptosis entry was “induced caspase-3-dependent apoptosis”.

The next data set has as its system oral squamous carcinoma cells.
Settings: not given
As for epigallocatechin-3-gallate [EGCG], the Apoptosis result is listed as “induce apoptosis”.

A further data set has as its system mouse skin.
Settings: not given
Take `CCCCCCCC(=O)CCc1ccc(O)c(OC)c1` [[6]-paradol]: the “Protection from tumor inducing agent” value is listed as “protected mouse skin from a tumor inducing agent”.
